The target of the assay is T1, PDGF-receptor beta enzyme comprising the tyrosine kinase domain (Homo sapiens, UniProt P09619).
T1 construct: from amino acid 545 to 1106 of GenBank Access NO: AAA36427
The assay can be described thus: Inhibition of PDGF-receptor kinase activity (cell-free, PLC1 peptide, 33P Flashplate). Type of assay: biochemical. The conditions noted are these: PDGF-R kinase activity; for inhibition at 10 µM: compound at 10 uM, read-out: Percent Inhibition @ 10 uM; for IC50: read-out: IC50. The method, then: PDGF-R kinase activity was assayed by its ability to phosphorylate one of its target proteins, PLCγ, in a cell-free system, in particular, a PLC1 peptide comprising the tyrosine residue where the phosphorylation occurs was used for the assay.
10× Kinase Buffer (500 mM Tris-HCl pH=8, 100 mM MgCl2, 1 mM Na3VO4); 10 mM DTT (final concentration at 1 mM in assay); 10 mM ATP (final concentration at 5 μM in assay); ^33P-γ-ATP (Cat. No.: NEG/602H. 2000-3000 Ci/mmol) purchased from NEN; Purified, soluble, recombinant PDGF-receptor beta enzyme comprising the tyrosine kinase domain (from amino acid 545 to 1106 of GenBank Access NO: AAA36427 ) at 0.4 mg/mL; Enzyme Dilution Buffer (50 mM Tris-HCl pH=8.0, 0.1% BSA); Wash/Stop Buffer (PBS +100 mM EDTA); NEN Streptavidin Flashplates (Cat. No.: SMP-103) which binds to the biotinylated PLC1 peptide but not the PDGF-R enzyme; PLC1 peptide (Biotin-[…]-Amide) at 1 mM in 50 mM Tris-HCL with pH of 8.0.
Reagents were first mixed according the following regimen:
The above reaction mixture was dispensed into each well of a Flashplate at 70 μl/well. To test the effect of a compound on PDGF-R kinase activity, the test compound either in a fixed concentration or in serially diluted concentrations in 100% DMSO was added to appropriate wells at 1 μl/well.
Enzyme PDGF-R was diluted in Enzyme dilution buffer as following:
The kinase reaction was initiated by adding 30 μl of diluted PDGF-R enzyme solution to each well on the Flashplate containing hot ATP and PLC1, except wells of column 12 rows E through H, which were used to calculate the plate background. The Flashplate was swirled to mix and was incubated at 30° C. for 60 minutes. Then, the reaction mixture was discarded and the Flashplate was washed 3 times each with 200 μl Wash/Stop Buffer. Subsequently, each well on the Flashplate was filled with 200 μl of Wash/Stop buffer. The amount of ^33P retained in each well was measured using a Packard TopCount after the plate was sealed with a transparent plate sealer.
The percentage of inhibition of the test compound on PDGF-R kinase activity is defined as […].
In order to test the potency of inhibition of present compounds, an IC50 for an individual compound was measured using the above procedure. As used herein, the IC50 for PDGF-R kinase activity refers to the concentration of an inhibitor at which the activity of the PDGF-R kinase is reduced by one-half as compared with reactions containing no inhibitor.

T1 sequence (P09619 545-1106): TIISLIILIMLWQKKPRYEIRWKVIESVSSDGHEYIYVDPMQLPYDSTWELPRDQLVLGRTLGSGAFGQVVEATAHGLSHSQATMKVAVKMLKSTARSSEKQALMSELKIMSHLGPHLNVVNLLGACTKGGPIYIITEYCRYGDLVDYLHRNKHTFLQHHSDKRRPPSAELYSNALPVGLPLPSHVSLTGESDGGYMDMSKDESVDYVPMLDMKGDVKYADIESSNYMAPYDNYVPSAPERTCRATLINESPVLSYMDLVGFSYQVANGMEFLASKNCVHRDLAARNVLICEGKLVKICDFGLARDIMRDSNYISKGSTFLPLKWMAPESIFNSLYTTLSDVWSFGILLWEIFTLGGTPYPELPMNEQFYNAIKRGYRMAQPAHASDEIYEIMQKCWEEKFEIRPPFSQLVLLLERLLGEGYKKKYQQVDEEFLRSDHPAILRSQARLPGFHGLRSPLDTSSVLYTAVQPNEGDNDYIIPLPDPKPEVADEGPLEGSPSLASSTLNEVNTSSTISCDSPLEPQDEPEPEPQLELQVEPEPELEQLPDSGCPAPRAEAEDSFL

With `COc1ccncc1Nc1[nH]nc2c1Cc1cc(OC)c(OC)cc1-2` [Compound 453, (6,7-Dimethoxy-2,4-dihydro-indeno[1,2-c]pyrazol-3-yl)-(4-methoxy-pyridin-3-yl)-amine], the inhibition at 10 µM turned out to be 88% and the 50% inhibitory concentration (IC50) worked out at 829 nM.
`CCOC(=O)CNC(=O)n1nc2c(c1Nc1cccc(F)c1)Cc1cc(OC)c(OC)cc1-2` [Compound 407, {[3-(3-Fluoro-phenylamino)-6,7-dimethoxy-4H-indeno[1,2-c]pyrazole-2-carbonyl]-amino}-acetic acid ethyl ester]: the inhibition at 10 µM worked out at 39% and the concentration for half-maximal inhibition (IC50) was 9880 nM.
As to `COc1ccc(Nc2[nH]nc3c2Cc2cc(OC)c(OC)cc2-3)c(OC)c1` [Compound 47, (6,7-Dimethoxy-2,4-dihydro-indeno[1,2-c]pyrazol-3-yl)-(2,4-dimethoxy-phenyl)-amine], the inhibition at 10 µM is 47%.
Consider `COc1cc2c(cc1OC)C(C(C)C)c1c-2n[nH]c1Nc1cccc(Cl)c1` (stereo not drawn) [Compound 540, (3-Chloro-phenyl)-(4-isopropyl-6,7-dimethoxy-2,4-dihydro-indeno[1,2-c]pyrazol-3-yl)-amine], for which the inhibition at 10 µM was determined as 47% and the concentration for half-maximal inhibition (IC50) was 14700 nM.
Consider `Nc1ccc2c(c1)Cc1c-2n[nH]c1Nc1cccc(Br)c1` [Compound 117, N3-(3-Bromo-phenyl)-2,4-dihydro-indeno[1,2-c]pyrazole-3,6-diamine], for which the inhibition at 10 µM was 98% and the half-inhibitory concentration (IC50) is 130 nM.
The matching figures for `COc1cc2c(cc1OCC(O)CO)Cc1c-2n[nH]c1NCc1c(Cl)cccc1Cl` (stereo not drawn) [Compound 450, 3-[3-(2,6-Dichloro-benzylamino)-7-methoxy-2,4-dihydro-indeno[1,2-c]pyrazol-6-yloxy]-propane-1,2-diol]: 100% and 0.938 nM.
On to `COc1cc2c(cc1OCC(O)CN1CCCC1)Cc1c-2n[nH]c1NCc1c(Cl)cccc1Cl` (stereo not drawn) [Compound 390, 1-[3-(2,6-Dichloro-benzylamino)-7-methoxy-2,4-dihydro-indeno[1,2-c]pyrazol-6-yloxy]-3-pyrrolidin-1-yl-propan-2-ol], for which the inhibition at 10 µM was 99% and the 50% inhibitory concentration (IC50) turned out to be 2.03 nM.
Regarding `COc1cccc(Nc2[nH]nc3c2Cc2ccccc2-3)c1` [Compound 343], the inhibition at 10 µM worked out at 99.5% and the IC50 is 8.08 nM.
For `COc1cc2c(cc1F)Cc1c-2n[nH]c1NCc1ccccc1F` [Compound 426, (2-Fluoro-benzyl)-(6-fluoro-7-methoxy-2,4-dihydro-indeno[1,2-c]pyrazol-3-yl)-amine] the same measures were 97% and 241 nM.
The matching figures for `COc1cc2c(cc1OC)-c1n[nH]c(NCc3cccc(Cl)c3)c1C2` [Compound 424, (3-Chloro-benzyl)-(6,7-dimethoxy-2,4-dihydro-indeno[1,2-c]pyrazol-3-yl)-amine]: 100% and 79.1 nM.
With `COc1cc2c(cc1OC)-c1n[nH]c(Nc3c(F)cccc3F)c1C2` [Compound 476, (2,6-Difluoro-phenyl)-(6,7-dimethoxy-2,4-dihydro-indeno[1,2-c]pyrazol-3-yl)-amine], the inhibition at 10 µM stood at 88.5% and the IC50 was determined as 250 nM.
Turning to `Cc1cccc2c1Cc1c-2n[nH]c1Nc1ccccc1` [Compound 23, (5-Methyl-2,4-dihydro-indeno[1,2-c]pyrazol-3-yl)-phenyl-amine], the inhibition at 10 µM came out at 87% and the half-maximal inhibitory concentration (IC50) worked out at 1940 nM.
Take `COc1cc2c(cc1OC)-c1n[nH]c(Nc3ccc(N(C)C)cc3)c1C2` [Compound 40]: the inhibition at 10 µM came out at 63% and the half-inhibitory concentration (IC50) was found to be 5950 nM.
Take `CCOC(=O)n1nc2c(c1Nc1cccc(F)c1)Cc1cc(OC)c(OC)cc1-2` [Compound 435, 3-(3-Fluoro-phenylamino)-6,7-dimethoxy-4H-indeno[1,2-c]pyrazole-2-carboxylic acid ethyl ester]: the inhibition at 10 µM was 67% and the half-maximal inhibitory concentration (IC50) is 1590 nM.
For `CCOC(=O)CCC(=O)n1nc(Nc2cccc(F)c2)c2c1-c1cc(OC)c(OC)cc1C2` [Compound 429, 4-[3-(3-Fluoro-phenylamino)-6,7-dimethoxy-4H-indeno[1,2-c]pyrazol-1-yl]-4-oxo-butyric acid ethyl ester] the same measures were 72% and 671 nM.
For `CC(C)Oc1cc2c(cc1OC(C)C)-c1n[nH]c(Nc3ccc(F)c(Cl)c3)c1C2` [Compound 167, (3-Chloro-4-fluoro-phenyl)-(6,7-diisopropoxy-2,4-dihydro-indeno[1,2-c]pyrazol-3-yl)-amine] the same measures were 92% and 511 nM.
For `COc1ccc(Cl)cc1Nc1[nH]nc2c1Cc1ccccc1-2` [Compound 342, (5-Chloro-2-methoxy-phenyl)-(2,4-dihydro-indeno[1,2-c]pyrazol-3-yl)-amine] the same measures were 56.5% and 26.7 nM.
For `COc1cc2c(cc1OCCCN1CCN(C)CC1)Cc1c-2n[nH]c1Nc1cccc(Cl)c1` [Compound 213, (3-Chloro-phenyl)-{7-methoxy-6-[3-(4-methyl-piperazin-1-yl)-propoxy]-2,4-dihydro-indeno[1,2-c]pyrazol-3-yl}-amine], the inhibition at 10 µM was found to be 82% and the half-inhibitory concentration (IC50) is 2.7 nM.
For `Fc1ccc2c(c1)Cc1c-2n[nH]c1Nc1ccccc1` [Compound 24, (6-Fluoro-2,4-dihydro-indeno[1,2-c]pyrazol-3-yl)-phenyl-amine] the same measures were 71% and 84 nM.
`CCC1c2cc(OC)c(OC)cc2-c2c1c(Nc1cccc(Br)c1)nn2C(=O)c1ccccc1` (stereo not drawn) [Compound 546, [3-(3-Bromo-phenylamino)-4-ethyl-6,7-dimethoxy-4H-indeno[1,2-c]pyrazol-1-yl]-phenyl-methanone]: the inhibition at 10 µM amounted to 72.5%.
Consider `Cc1cccc2c1Cc1c-2n[nH]c1Nc1cccc(F)c1` [Compound 99, (3-Fluoro-phenyl)-(5-methyl-2,4-dihydro-indeno[1,2-c]pyrazol-3-yl)-amine], for which the inhibition at 10 µM came to 87.5% and the half-inhibitory concentration (IC50) came out at 1470 nM.
For `COc1ccc2c(c1)Cc1c-2n[nH]c1Nc1ccccc1` [Compound 7, (6-Methoxy-2,4-dihydro-indeno[1,2-c]pyrazol-3-yl)-phenyl-amine] the same measures were 92% and 217 nM.
In the case of `COc1cc2c(cc1OC)-c1c(c(Nc3cccc(F)c3)nn1C(=O)NCCN(C)C)C2` [Compound 517, 3-(3-Fluoro-phenylamino)-6,7-dimethoxy-4H-indeno[1,2-c]pyrazole-1-carboxylic acid (2-dimethylamino-ethyl)-amide], the inhibition at 10 µM was 75.5% and the IC50 came out at 1790 nM.
On to `COc1ccc2c(c1)Cc1c-2n[nH]c1Nc1cc(F)ccc1F` [Compound 87, (2,5-Difluoro-phenyl)-(6-methoxy-2,4-dihydro-indeno[1,2-c]pyrazol-3-yl)-amine], for which the inhibition at 10 µM turned out to be 91% and the concentration for half-maximal inhibition (IC50) was determined as 69 nM.
The matching figures for `COc1ccc(OC)c(CNc2[nH]nc3c2Cc2ccc(C)cc2-3)c1` [Compound 316, (2,5-Dimethoxy-benzyl)-(7-methyl-2,4-dihydro-indeno[1,2-c]pyrazol-3-yl)-amine]: 66% and 4910 nM.
For `COc1cc2c(cc1OCCCN1CCN(C)CC1)Cc1c-2n[nH]c1Nc1cccc(F)c1` [Compound 216, (3-Fluoro-phenyl)-{7-methoxy-6-[3-(4-methyl-piperazin-1-yl)-propoxy]-2,4-dihydro-indeno[1,2-c]pyrazol-3-yl}-amine] the same measures were 100% and 5.8 nM.
The matching figures for `COC(=O)C(NC(=O)n1nc(Nc2cccc(F)c2)c2c1-c1cc(OC)c(OC)cc1C2)C(C)C` (stereo not drawn) [Compound 530, 2-{[3-(3-Fluoro-phenylamino)-6,7-dimethoxy-4H-indeno[1,2-c]pyrazole-1-carbonyl]-amino}-3-methyl-butyric acid methyl ester]: 71.5% and 4150 nM.
On to `COc1cc2c(cc1OC)-c1n[nH]c(Nc3ccccc3C(C)C)c1C2` [Compound 57, (6,7-Dimethoxy-2,4-dihydro-indeno[1,2-c]pyrazol-3-yl)-(2-isopropyl-phenyl)-amine], for which the inhibition at 10 µM worked out at 71% and the IC50 was 2150 nM.

In general, inhibition refers to the change of the read-out against control, counted positive when it falls. One may read the IC50 as the concentration that inhibits the measured activity by half.

(Values after US7196110B2, “N-substituted tricyclic 3-aminopyrazoles as inhibitors for the treatment of cell proliferative disorders” (Janssen Phamaceutica N.V., priority 2002, dated 2007).)
